From ChEMBL document CHEMBL5550209, “Hit-to-Lead Optimization of Heterocyclic Carbonyloxycarboximidamides as Selective Antagonists at Human Adenosine A3 Receptor” (J Med Chem, 2024)

Test: Plasma protein binding in human at 10 uM measured upto 24 hrs by equilibrium dialysis method

fraction unbound at 24 h, 10 µM: 0.01
Compound: CN[C@H]1CC[C@@H](c2ccc(Cl)c(Cl)c2)c2ccccc21 [SERTRALINE]
